# Article PMC9340770 (Journal of Medicinal Chemistry, 2022)
# Legend:
# SOS2 = target: T1, SOS2 (Homo sapiens, UniProt Q07890); test: SOS2 KRAS WT GDP exchange assay; type: biochemical
# T1 construct: amino acids 558-1047, expressed in E. coli with a N-terminal HIS-tag MW=59.3 kDa; His (N); purchased Accelagen Inc; host or cells: E. coli
# Procedure: The plates were incubated overnight at 4 °C on a shaker.
# Each plate was washed 3x times […]
# for 2 hours (protected from light). The secondary antibody solution as removed and each plate […]
# was washed with PBST 3x times. […]
# length at 3mm and both 800nm and 700nm filters. The GAPDH normalized scan values for each […]
# were then calculated with the Graph pad Prism software.
# EGFR selectivity was profiled using Reaction Biology’s radiometric HotSpot kinase assay with human EGFR. Compounds were sent as a powder then suspended as a 10 mM DMSO stock […]
# starting at 20 μM. Reactions were carried out at 10 μM ATP.
# SOS2 KRAS WT GDP Exchange Assay
# The final conditions for the Functional SOS2 Assay are as follows: 50 mM HEPES 7.5, 2nM SOS2, 50nM GTP-CY5, 30nM KRAS, 0.5 nM Tb-SA, 5 mM MgCl2, 1 mM TCEP, 0.2 mg/mL BSA, ~1.0% DMSO. Recombinant human SOS2 polypeptide (Accelagen Inc., corresponding to amino acids 558-1047, expressed in E. coli with a N-terminal HIS-tag MW=59.3 kDa) and Cy5-GTP (Jena Bioscience Inc) were added to an exemplary compound (in a DMSO stock solution) at room temperature for 15 minutes. […] 100 percent of control (POC) is determined by using a DMSO control and 0 POC is determined using a concentration of control […]
# CNS mouse PK study = type: in vivo, female CD-1 mice; settings: female, CD-1, mouse, CSF / free plasma, read-out: CSF:Cp,u (Kp,uu)
# Text: Table 10 CNS Mouse PK Profile of MRTX0902 (32) ^a | column: mean free plasma concn (Cp,u, nM); mean brain concn (ng/g); mean CSF concn (nM); CSF:Cp,u (Kp,uu)
# ADORA2A = target: T2, ADORA2A (Homo sapiens, UniProt P29274); test: Safetyscan Calcium Flux; type: cell-based
# T2 construct: purchased DiscoverX (Eurofins) Safetyscan Panel
# HRH1 = target: T3, HRH1 (Homo sapiens, UniProt P35367); test: Safetyscan Calcium Flux; type: cell-based
# T3 construct: purchased DiscoverX (Eurofins) Safetyscan Panel
# ADRB1 = target: T4, ADRB1 (Homo sapiens, UniProt P08588); test: Safetyscan cAMP; type: cell-based
# T4 construct: purchased DiscoverX (Eurofins) Safetyscan Panel
# ADRB2 = target: T5, ADRB2 (Homo sapiens, UniProt P07550); test: Safetyscan cAMP; type: cell-based
# T5 construct: purchased DiscoverX (Eurofins) Safetyscan Panel
# hERG = target: T6, hERG (Homo sapiens, UniProt Q12809); test: Safetyscan Ion Channel; type: cell-based; settings: blocker mode, read-out: RC50 (IC50) hERG Blocker
# T6 construct: purchased DiscoverX (Eurofins)
# LCK = target: T7, LCK (Homo sapiens, UniProt P06239); test: Safetyscan Kinases Binding; settings: read-out: RC50 (IC50) LCK Inhibitor
# T7 construct: purchased DiscoverX (Eurofins)
# COX1 = target: T8, COX1 (Homo sapiens, UniProt P23219); test: Safetyscan Enzymatic; type: biochemical; settings: read-out: RC50 (IC50) COX1 Inhibitor
# T8 construct: purchased DiscoverX (Eurofins)
# MAOA = target: T9, MAOA (Homo sapiens, UniProt P21397); test: Safetyscan Enzymatic; type: biochemical; settings: read-out: RC50 (IC50) MAOA Inhibitor
# T9 construct: purchased DiscoverX (Eurofins)
# in vivo = settings: CD-1, mouse, po, 30 mg/kg
# T3 sequence (P35367 whole entry): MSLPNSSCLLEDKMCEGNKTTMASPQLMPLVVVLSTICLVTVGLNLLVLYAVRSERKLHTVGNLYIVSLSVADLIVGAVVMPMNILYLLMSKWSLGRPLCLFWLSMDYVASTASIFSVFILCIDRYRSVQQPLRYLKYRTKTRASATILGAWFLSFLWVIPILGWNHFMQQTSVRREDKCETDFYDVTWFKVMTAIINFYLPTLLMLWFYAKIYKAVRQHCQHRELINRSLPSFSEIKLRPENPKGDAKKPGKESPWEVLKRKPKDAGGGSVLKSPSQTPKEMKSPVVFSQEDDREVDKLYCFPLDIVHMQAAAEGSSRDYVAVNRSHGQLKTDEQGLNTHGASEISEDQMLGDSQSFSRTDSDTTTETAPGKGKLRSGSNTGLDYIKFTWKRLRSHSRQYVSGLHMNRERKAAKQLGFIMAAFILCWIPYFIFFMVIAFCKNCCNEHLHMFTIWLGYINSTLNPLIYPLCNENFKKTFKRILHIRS
# T5 sequence (P07550 whole entry): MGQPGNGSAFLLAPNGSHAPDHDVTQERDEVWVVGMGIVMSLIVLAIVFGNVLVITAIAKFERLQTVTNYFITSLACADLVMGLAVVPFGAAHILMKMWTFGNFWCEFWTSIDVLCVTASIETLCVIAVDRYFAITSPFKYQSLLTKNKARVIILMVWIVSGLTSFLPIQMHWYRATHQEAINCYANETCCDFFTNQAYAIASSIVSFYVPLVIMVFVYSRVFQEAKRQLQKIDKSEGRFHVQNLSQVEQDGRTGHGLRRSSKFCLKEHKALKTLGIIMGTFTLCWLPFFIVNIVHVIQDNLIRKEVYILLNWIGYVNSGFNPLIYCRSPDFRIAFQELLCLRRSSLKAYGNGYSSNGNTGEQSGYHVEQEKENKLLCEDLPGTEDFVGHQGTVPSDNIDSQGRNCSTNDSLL
# T4 sequence (P08588 whole entry): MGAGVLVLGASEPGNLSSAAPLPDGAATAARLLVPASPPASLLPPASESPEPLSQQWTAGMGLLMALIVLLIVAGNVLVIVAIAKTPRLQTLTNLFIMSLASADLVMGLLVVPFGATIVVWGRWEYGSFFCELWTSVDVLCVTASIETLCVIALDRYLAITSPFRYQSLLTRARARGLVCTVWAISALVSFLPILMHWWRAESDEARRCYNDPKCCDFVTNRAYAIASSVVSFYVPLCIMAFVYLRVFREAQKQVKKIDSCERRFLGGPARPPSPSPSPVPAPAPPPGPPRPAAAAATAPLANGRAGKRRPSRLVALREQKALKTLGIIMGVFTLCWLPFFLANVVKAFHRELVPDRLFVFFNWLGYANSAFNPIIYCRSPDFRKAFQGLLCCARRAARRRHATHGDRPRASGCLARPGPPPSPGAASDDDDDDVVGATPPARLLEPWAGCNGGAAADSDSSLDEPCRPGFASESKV
# T2 sequence (P29274 whole entry): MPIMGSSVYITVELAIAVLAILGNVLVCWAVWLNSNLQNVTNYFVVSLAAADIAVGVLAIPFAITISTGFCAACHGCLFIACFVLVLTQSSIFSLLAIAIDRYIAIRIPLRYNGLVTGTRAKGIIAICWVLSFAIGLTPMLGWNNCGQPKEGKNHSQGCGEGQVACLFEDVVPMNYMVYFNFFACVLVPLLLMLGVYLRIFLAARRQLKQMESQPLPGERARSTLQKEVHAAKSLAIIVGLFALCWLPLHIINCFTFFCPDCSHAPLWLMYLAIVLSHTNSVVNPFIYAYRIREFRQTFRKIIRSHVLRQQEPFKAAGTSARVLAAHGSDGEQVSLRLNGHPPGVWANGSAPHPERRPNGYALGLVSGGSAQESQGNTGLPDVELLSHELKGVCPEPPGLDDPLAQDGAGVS
# T7 sequence (P06239 whole entry): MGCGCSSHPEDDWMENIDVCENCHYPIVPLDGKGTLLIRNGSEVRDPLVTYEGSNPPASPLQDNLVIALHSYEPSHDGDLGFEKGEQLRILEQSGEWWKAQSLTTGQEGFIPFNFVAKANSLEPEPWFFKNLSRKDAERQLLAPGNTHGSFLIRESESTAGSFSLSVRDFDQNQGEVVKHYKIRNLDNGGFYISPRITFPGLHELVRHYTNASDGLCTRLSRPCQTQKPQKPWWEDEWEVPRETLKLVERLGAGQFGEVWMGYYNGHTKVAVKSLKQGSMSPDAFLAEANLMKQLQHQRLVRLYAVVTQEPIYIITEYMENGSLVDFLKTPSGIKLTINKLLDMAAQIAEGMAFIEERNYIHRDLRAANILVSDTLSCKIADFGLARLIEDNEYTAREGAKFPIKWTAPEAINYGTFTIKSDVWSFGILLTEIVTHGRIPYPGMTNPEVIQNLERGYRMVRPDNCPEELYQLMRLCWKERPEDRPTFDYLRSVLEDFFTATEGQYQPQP
# T1 sequence (Q07890 558-1047): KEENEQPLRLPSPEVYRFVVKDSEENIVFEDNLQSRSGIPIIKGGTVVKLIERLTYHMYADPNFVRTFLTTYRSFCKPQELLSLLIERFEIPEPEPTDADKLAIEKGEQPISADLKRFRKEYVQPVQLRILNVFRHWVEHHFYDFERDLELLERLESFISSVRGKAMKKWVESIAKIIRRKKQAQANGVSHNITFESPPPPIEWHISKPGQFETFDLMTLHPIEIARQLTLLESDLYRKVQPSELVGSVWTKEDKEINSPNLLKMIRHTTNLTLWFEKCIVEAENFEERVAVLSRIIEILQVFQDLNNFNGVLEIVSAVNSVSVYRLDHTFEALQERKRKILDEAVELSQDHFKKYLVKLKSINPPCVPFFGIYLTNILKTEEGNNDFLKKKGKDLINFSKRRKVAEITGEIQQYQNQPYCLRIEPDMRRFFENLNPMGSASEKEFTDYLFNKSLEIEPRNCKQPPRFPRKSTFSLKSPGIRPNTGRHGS
# T9 sequence (P21397 whole entry): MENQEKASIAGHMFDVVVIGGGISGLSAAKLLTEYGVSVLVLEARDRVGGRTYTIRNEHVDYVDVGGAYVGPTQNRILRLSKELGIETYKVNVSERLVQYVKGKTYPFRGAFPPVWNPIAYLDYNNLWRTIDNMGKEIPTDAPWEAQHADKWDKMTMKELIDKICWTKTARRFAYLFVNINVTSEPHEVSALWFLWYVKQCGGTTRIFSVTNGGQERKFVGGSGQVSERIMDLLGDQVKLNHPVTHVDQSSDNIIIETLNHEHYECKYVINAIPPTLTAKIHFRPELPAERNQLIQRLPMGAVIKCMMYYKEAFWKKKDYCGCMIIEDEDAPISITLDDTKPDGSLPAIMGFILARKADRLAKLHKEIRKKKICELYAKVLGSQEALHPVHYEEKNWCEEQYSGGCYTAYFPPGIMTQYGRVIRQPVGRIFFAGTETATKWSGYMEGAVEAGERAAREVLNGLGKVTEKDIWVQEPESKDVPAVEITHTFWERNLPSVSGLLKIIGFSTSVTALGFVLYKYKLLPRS
# T8 sequence (P23219 24-599): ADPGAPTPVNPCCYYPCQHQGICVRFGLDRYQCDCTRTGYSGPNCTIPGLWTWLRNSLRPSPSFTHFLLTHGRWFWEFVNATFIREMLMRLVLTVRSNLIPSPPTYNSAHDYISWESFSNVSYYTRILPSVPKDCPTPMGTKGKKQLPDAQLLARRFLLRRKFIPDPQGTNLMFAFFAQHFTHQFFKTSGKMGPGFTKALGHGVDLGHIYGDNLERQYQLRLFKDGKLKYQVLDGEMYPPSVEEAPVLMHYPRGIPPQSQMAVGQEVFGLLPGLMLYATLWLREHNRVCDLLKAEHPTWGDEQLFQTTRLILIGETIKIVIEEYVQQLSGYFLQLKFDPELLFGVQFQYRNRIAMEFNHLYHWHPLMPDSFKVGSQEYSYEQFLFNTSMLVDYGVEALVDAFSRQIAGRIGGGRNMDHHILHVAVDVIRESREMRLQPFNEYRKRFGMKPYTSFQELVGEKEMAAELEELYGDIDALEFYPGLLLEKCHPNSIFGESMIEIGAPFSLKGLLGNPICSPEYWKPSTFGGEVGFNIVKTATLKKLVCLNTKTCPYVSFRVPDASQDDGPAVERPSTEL
structure (smiles),measurement,setting,value
"Cc1c(C#N)cccc1[C@@H](C)Nc1nnc(C)c2cnc(N3CCOCC3)cc12 [Compound 32, (R)-2-Methyl-3-(1-((4-methyl-7-morpholinopyrido[3,4-d]pyridazin-1-yl)amino)ethyl)benzonitrile]",IC50,SOS2,> 10 µM
same,Kp uu at 1 h,CNS mouse PK study; 1 h after PO 100 mg/kg single dose,1.56
same,Kp uu at 8 h,CNS mouse PK study; 8 h after PO 100 mg/kg single dose,1.03
same,EC50,"ADORA2A; agonist mode, read-out: RC50 (EC50) ADORA2A Agonist",> 10 µM
same,IC50,"ADORA2A; antagonist mode, read-out: RC50 (IC50) ADORA2A Antagonist",> 10 µM
same,EC50,"HRH1; agonist mode, read-out: RC50 (EC50) HRH1 Agonist",> 10 µM
same,IC50,"HRH1; antagonist mode, read-out: RC50 (IC50) HRH1 Antagonist",> 10 µM
same,EC50,"ADRB1; agonist mode, read-out: RC50 (EC50) ADRB1 Agonist",> 10 µM
same,IC50,"ADRB1; antagonist mode, read-out: RC50 (IC50) ADRB1 Antagonist",> 10 µM
same,EC50,"ADRB2; agonist mode, read-out: RC50 (EC50) ADRB2 Agonist",> 10 µM
same,IC50,"ADRB2; antagonist mode, read-out: RC50 (IC50) ADRB2 Antagonist",> 10 µM
same,IC50,hERG,> 10 µM
same,IC50,LCK,> 10 µM
same,IC50,COX1,> 10 µM
same,IC50,MAOA,8.88 µM
same,bioavailability,in vivo,69%
